Measured values taken from a compilation of properties of binary mixtures (doi:10.1016/j.jct.2020.106093).

Assay: xn = mol fraction of the nth substance listed
Conditions: 100.9 kPa, x2 = 0

O + CC(=O)[O-].CC[NH2+]CC
Conditions	speed of sound [m/s]	viscosity [mPa·s]
283.15 K	–	1.306
288.15 K	–	1.138
290.65 K	–	1.066
293.15 K	–	1.002
295.65 K	–	0.943
298.15 K	–	0.89
303.15 K	–	0.797
305.65 K	–	0.757
308.15 K	–	0.719
310.65 K	–	0.685
313.15 K	1529.2	0.653
315.65 K	–	0.624
318.15 K	1536.8	0.596
323.15 K	–	0.547
325.65 K	–	0.525
328.15 K	–	0.504
330.65 K	–	0.485
333.15 K	–	0.466
338.15 K	–	0.433
340.65 K	–	0.418
